US12642756B2, “Leave-on composition” (Firmenich SA, priority 2020, dated 2026)

What was measured:
[1] = test system: Hydrolase (Lipase solution 0.100 LU/ml); assay: Fragrance evolution on Tzero lids (dynamic headspace), palmitate esters; format: biochemical
Procedure: To further investigate the release kinetics of palmitate esters in the presence of hydrolases, an in-vitro assay measuring the functional perfume ingredient in the gaseous phase was devised.
Three palmitate esters releasing respectively (2E,6Z)-nona-2,6-dien-1-ol (corresponding to invention's compound) and 3,7-dimethyl-2,6-octadien-1-ol (corresponding to comparative compound) were tested in the presence of physiologically relevant concentration of Hydrolase (0.1 LU/ml) as follows. 2.5 ul Lipase solution (0.100 LU/ml) was added to Tzero Lids TA [Part no. 901671.901] crucibles. 2.5 ul of 0%, […], 0.1%, […] and 1% solution in ethanol of palmitate esters were added to the same crucibles and placed on preheated precision hotplate to 32C. Additional aliquots of 2.5 ul water were added to the crucibles at 1 h and 4 h to simulate humidity on skin and facilitate hydrolysis. The crucibles were transferred to 20 ml headspace vials after […] at 32C.
Analysis performed by Dynamic Headspace using Tenax TA trap outlined as follows. GC-MS-DHS analyses were performed on an Agilent Gas Chromatograph system 7890B coupled to an Agilent Mass Selective Detector 5977B and equipped with a Gerstel MPS autosampler. […]

[2] = Paneling of released fragrance alcohols on glass slides (sensory panel)
Procedure: Evaporation kinetics using 76 mm×51 mm glass slides was carried out. Prazitherm precision hotplate was pre-heated to 32 degrees Celsius for 30 minutes. Three glass slides were placed on the precision hotplate. Each glass slide is labeled with a unique code so that its identity is unknown to the panelists. Using a Gilson Microman M25 positive displacement pipette, […] of 0.1 LU lipase solution was dosed directly to the center of one of the glass slides. Then 20 μl of 1% (2E,6Z)-nona-2,6-dien-1-yl hexadecanoate was dosed very slowly to the lipase droplet. Once all the sample solution was applied onto the glass slide, the applied glass slide was evaporated on the precision hotplate for 4 hours at 32 degrees Celsius. Sample preparation for 1% (Z)-3-hexen-1-yl hexadecanoate solution and 1% 3,7-dimethyl-2,6-octadien-1-yl hexadecanoate solution were done the same way. Sample preparations for all three solutions were repeated for duplicates to replace each glass slide twice during the sensory panel period—the limit for a glass slide sample set (with 3 different glass slide samples) was 10 evaluations. At the 4-hour time interval, a spray bottle filled with deionized water was primed and then water was sprayed directly onto each glass slide once. One spray was enough to cover the glass slide. All glass slides were allowed to sit for 10 minutes before the sensory panel so the water was absorbed by the evaporated mixtures to represent humidity on skin. For evaluation, the panelist picks up the treated glass slides, smells the center and rates the intensity of each slide on an evaluation sheet.
In one test, the panelists rated odor intensity on a scale of 1 to 7 for each glass slide evaluated under release by the hydrolase at time 4 hours. The second approach was the so-called forced choice where panelists were forced to select the most intense out of the three […] after release with the Hydrolase at 4 hours at 0.1 LU/ml.

[3] = test system: Hydrolase (Lipase solution 0.100 LU/ml); assay: Fragrance evolution on Tzero lids (dynamic headspace) in a personal care base; format: biochemical; details: day cream base O/W emulsion with 1 wt% compound, absence of hydrolase (water control), 32C, 4 hours
Procedure: To confirm fragrance release in presence of personal care base, personal care base was formulated with invention's compound and analyzed by an in-vitro assay measuring the functional perfume ingredient in the gaseous phase.
Testing was done in the presence of physiologically relevant concentration of Hydrolase (0.1 LU/ml) as follows. […] 901671.901] crucibles. 2.5 ul of personal care base with (2E,6Z)-nona-2,6-dien-1-yl hexadecanoate was added to the same crucibles and placed on preheated precision hotplate to 32C. Additional aliquots of 2.5 ul water were added to the crucibles at 1 h and 4 h to simulate humidity on skin and facilitate hydrolysis. The crucibles were transferred to 20 ml headspace vials after 4 hours at 32C.
Analysis performed by Dynamic Headspace using Tenax TA trap outlined as follows. GC-MS-DHS analyses were performed on an Agilent Gas Chromatograph system 7890B coupled to an Agilent Mass Selective Detector 5977B and equipped with a Gerstel MPS autosampler. Additionally equipment of automated Gerstel Dynamic Headspace System, ATEX air sampling tube gripper for 20 mL headspace vials with a metal screw cap (preassembled with 1.3 mm PTFE septa) and Gerstel CIS 4C cryostatic cooling device CCD2 (Inlet 2) mounted with Gerstel TDU2 thermal desorption unit. […]

[4] = test system: lipase enzyme (Enzyme Innovation Addclean LP L); assay: Reaction rate measurement in solution in the presence of a hydrolase (GC/MS); format: biochemical
Procedure: The release kinetics of 3,7-dimethyl-2,6-octadien-1-yl hexadecanoate (comparative compound) and (2E,6Z)-nona-2,6-dien-1-yl hexadecanoate (invention's compound) in the presence of a hydrolase were compared.
In order to compare the reaction rate of the esters, the amount of 3,7-dimethyl-2,6-octadien-1-yl hexadecanoate and (2E,6Z)-nona-2,6-dien-1-yl hexadecanoate and the amount of ethyl hexadecanoate over time were measured by GC/MS. The ethyl hexadecanoate was formed by the reaction between the hexadecanoic acid released and the ethanol.
Enzyme Solution Preparation: The lipase enzyme source used was Enzyme Innovation Addclean LP L at an activity of 20000 Lipase Units/g. A stock solution of 100 LU/ml was prepared and diluted in serial dilution to working concentrations as follows:
The solutions comprising 3,7-dimethyl-2,6-octadien-1-yl hexadecanoate or (2E,6Z)-nona-2,6-dien-1-yl hexadecanoate (also called palmitate ester solutions) were prepared by dissolving in ethanol to 5% by weight. These were subsequently diluted to working conditions of the experiment.
In a 2 ml Agilent GC vial (Agilent 5183-2068), 50 ul of 100 LU/ml solution was added with a micropipette. 100 ul deionized water was added to ensure continued hydrolysis. Samples to were prepared for each time condition, replicate, and palmitate ester solutions of interest because the reaction will be stopped and only measured once at 0 hours, 0.5 hours and 1 hour. […]
The palmitate esters were prepared by dissolving in ethanol to 5% by weight (stock). Palmitate ester solution was further diluted to 0.2% and 50 ul added to all sample vials above and recorded as time zero. […] Samples were analyzed by GC/MS direct injection methodology as follows.
GC-MS analyses were performed on an Agilent Gas Chromatograph system 7890B coupled to an Agilent Mass Selective Detector 5977B and equipped with a Gerstel MPS autosampler or equivalent. […] External calibration curves of (2E,6Z)-nona-2,6-dien-1-yl hexadecanoate and 3,7-dimethyl-2,6-octadien-1-yl hexadecanoate were prepared at 10-500 ppm was prepared and sample signal quantified in ppm.

[5] = glass slide, 0.1 LU/ml lipase, 4 hours

Structure (SMILES) | release rate compared with 3,7-dimethyl-2,6-octadien-1-yl hexadecanoate ([1]; stated in Example 6, test not named) | perception / impression by the panelists [2, 5] | rate of release of fragrance material into headspace ([1]; Hydrolase 0.1 LU/ml, 32C, 4 hours, on Tzero lids (FIG. 3)) | odor intensity rated by panelists on a scale of 1 to 7 ([2]; 1% solution on glass slide, 0.1 LU/ml lipase, 4 hours at 32 degrees Celsius, versus the two other hexadecanoates (FIG. 6)) | forced choice: panelists who selected the sample as the most intense ([2]; glass slide, Hydrolase 0.1 LU/ml, 4 hours, three esters compared (FIG. 7)) | release of (2E,6Z)-nona-2,6-dien-1-ol in headspace from personal care base [3] | total rate of lipase-catalyzed reaction ([4]; compared with 3,7-dimethyl-2,6-octadien-1-yl hexadecanoate) | concentration of the ester in solution in function of time ([4]; lipase 100 LU/ml solution, 32C, 0, 0.5 and 1 hour, GC/MS, compared with 3,7-dimethyl-2,6-octadien-1-yl hexadecanoate (FIG. 1)) | release of the alcohol, confirmed by increase of ethyl hexadecanoate ([4]; lipase, ethanol present, 32C, up to 1 hour, compared with 3,7-dimethyl-2,6-octadien-1-ol (FIG. 2))
CC/C=C\CCOC(=O)CCCCCCCCCCCCCCC [(Z)-3-hexen-1-yl hexadecanoate, reference compound] | release faster than 3,7-dimethyl-2,6-octadien-1-yl hexadecanoate | not well perceived by the panelists |  |  |  |  |  |  | 
CC/C=C\CC/C=C/COC(=O)CCCCCCCCCCCCCCC [(2E,6Z)-nona-2,6-dien-1-yl hexadecanoate] |  | the most intense impression | higher rate than 3,7-dimethyl-2,6-octadien-1-yl hexadecanoate | significantly more intense | 20/21 | no release is observed | higher total rate of lipase-catalyzed reaction | decreased more rapid than the concentration of 3,7-dimethyl-2,6-octadien-1-yl hexadecanoate | faster release of (2E,6Z)-nona-2,6-dien-1-ol compared to 3,7-dimethyl-2,6-octadien-1-ol
